# US9115143B2, “Substituted indole derivatives as gamma secretase modulators” (Janssen Pharmaceuticals, Inc., priority 2011, dated 2015)
# Columns and labels:
# Aβ38 = experiment: In vivo efficacy B-2b: brain soluble Aβ38, MSD electrochemiluminescence multiplex; conditions: mouse brain soluble fraction, dose 30 mg/kg oral dosing, 4 h after dose; untreated control set at 100; read-out: Aβ38 (% vs Ctrl)_Mean
# Description: (§1) To determine whether acute administration of an Aβ38 increasing agents would increase Aβ38 levels in vivo, non-transgenic rodents, e.g. mice or rats were used. Animals treated with the Aβ38 increasing agents were examined and compared to those untreated or treated with vehicle and brain levels of soluble Aβ42, Aβ40, Aβ38, and Aβ37 were quantitated by MSD electrochemiluminescence detection technology. Treatment periods varied from hours (h) to days and were adjusted based on the results of the Aβ38 increase once a time course of onset of effect could be established.
# (§2) A typical protocol for measuring Aβ38 increase in vivo is shown but it is only one of many variations that could be used to optimize the levels of detectable Aβ. For example, Aβ38 increasing agents were formulated in 20% of Captisol® (a sulfobutyl ether of β-cyclodextrin) in water or 20% hydroxypropyl β cyclodextrin. The Aβ38 increasing agents were administered as a single oral dose or by any acceptable route of administration to overnight fasted animals. After 4 h, the animals were sacrificed and Aβ38 levels were analysed.
# (§3) Blood was collected by decapitation and exsanguinations in EDTA-treated collection tubes. Blood was centrifuged at 1900 g for 10 minutes (min) at 4° C. and the plasma recovered and flash frozen for later analysis. The brain was removed from the cranium and hindbrain. The cerebellum was removed and the left and right hemisphere were separated. The left hemisphere was stored at −18° C. for quantitative analysis of test compound levels. The right hemisphere was rinsed with phosphate-buffered saline (PBS) buffer and immediately frozen on dry ice and stored at −80° C. until homogenization for biochemical assays.
# (§4) Mouse brains from non-transgenic animals were resuspended in 8 volumes of 0.4% DEA (diethylamine)/50 mM NaCl containing protease inhibitors (Roche-11873580001 or 04693159001) per gram of tissue, e.g. for 0.158 g brain, add 1.264 ml of 0.4% DEA. All samples were homogenized in the FastPrep-24 system (MP Biomedicals) using lysing matrix D (MPBio #6913-100) at 6 m/s for 20 seconds. Homogenates were centrifuged at 20800×g for 5 min and supernatants collected. Supernatants were centrifuged at 221.300×g for 50 min. The resulting high speed supernatants were then transferred to fresh eppendorf tubes. Nine parts of supernatant were neutralized with 1 part 0.5 M Tris-HCl pH 6.8 and used to quantify Aβ.
# (§5) To quantify the amount of Aβ42, Aβ40, Aβ38, and Aβ37 in the soluble fraction of the brain homogenates, simultaneous specific detection of Aβ42, Aβ40, Aβ38, and Aβ37 was performed using MSD's electro-chemiluminescence multiplex detection technology. In this assay purified monoclonal antibodies specific for Abeta37 (JRD/Aβ37/3), Abeta38 (J&JPRD/Aβ38/5), Abeta40 (JRF/cAβ40/28), and Abeta42 (JRF/cAβ42/26) were coated on MSD 4-plex plates. Briefly, the standards (a dilution of synthetic Aβ42, Aβ40, Aβ38, and Aβ37) were prepared in 1.5 ml Eppendorf tube in Ultraculture, with final concentrations ranging from 10000 to 0.3 pg/m. The samples and standards were co-incubated with Sulfo-tag labelled JRF/rAβ/2 antibody to the N-terminus of Aβ as detector antibody. 50 μl of conjugate/sample or conjugate/standards mixtures were then added to the antibody-coated plate. The plate was allowed to incubate overnight at 4° C. in order to allow formation of the antibody-amyloid complex. Following this incubation and subsequent wash steps the assay was finished by adding read buffer according to the manufacturer's instructions (Meso Scale Discovery, Gaitherburg, Md.).
# (§6) The SULFO-TAG emits light upon electrochemical stimulation initiated at the electrode. MSD Sector instrument SI6000 was used for signal read-out.
# In this model a Aβ38 increase compared to untreated animals would be advantageous, in particular a Aβ38 increase with at least 10%, more in particular a Aβ38 increase with at least 20%. […]
# Aβ40 = experiment: In vivo efficacy B-1b/B-2b: brain soluble Aβ40, MSD electrochemiluminescence multiplex; conditions: mouse brain soluble fraction, dose 30 mg/kg oral dosing, 4 h after dose; untreated control set at 100; read-out: Aβ40 (% vs Ctrl)_Mean
# Description: as §1, with “Aβ42 lowering agent” for “Aβ38 increasing agents”, “reduce Aβ42” for “increase Aβ38”, “Meso Scale Discovery's (MSD)” for “MSD”, “Aβ42 lowering” for “Aβ38 increase”
# as §2, with “measuring Aβ42 lowering” for “measuring Aβ38 increase”, “example, Aβ42 lowering compounds” for “example, Aβ38 increasing agents”, “The Aβ42 lowering” for “The Aβ38 increasing”, “and Aβ42” for “and Aβ38”
# as §3, §4, §5, §6
# The results are shown in Table 5 (dose 30 mg/kg oral dosing) (value for untreated animals as control (Ctrl) was set at 100): […]
# Aβ42 = experiment: In vivo efficacy B-1b: brain soluble Aβ42, MSD electrochemiluminescence multiplex; conditions: mouse brain soluble fraction, dose 30 mg/kg oral dosing, 4 h after dose; untreated control set at 100; read-out: Aβ42 (% vs Ctrl)_Mean
# Description: as §1, with “Aβ42 lowering agent” for “Aβ38 increasing agents”, “reduce Aβ42” for “increase Aβ38”, “Meso Scale Discovery's (MSD)” for “MSD”, “Aβ42 lowering” for “Aβ38 increase”
# as §2, with “measuring Aβ42 lowering” for “measuring Aβ38 increase”, “example, Aβ42 lowering compounds” for “example, Aβ38 increasing agents”, “The Aβ42 lowering” for “The Aβ38 increasing”, “and Aβ42” for “and Aβ38”
# as §3, §4, §5, §6
# In this model a Aβ42 lowering compared to untreated animals would be advantageous, in particular a Aβ42 lowering with at least 10%, more in particular a Aβ42 lowering with at least 20%. […]
SMILES,melting point [°C],response vs control in vivo at 30 mg/kg (Aβ38) [%],response vs control in vivo at 30 mg/kg (Aβ40) [%],response vs control in vivo at 30 mg/kg (Aβ42) [%]
"COc1c(C#N)ccc2[nH]c(-c3nc4n(n3)CCOC4c3c(F)cccc3Cl)cc12 (single isomer, unassigned) [Compound 117, 2-[8-(2-chloro-6-fluorophenyl)-5,6-dihydro-8H-[1,2,4]triazolo[5,1-c][1,4]oxazin-2-yl]-4-methoxy-1H-indole-5-carbonitrile]",,147,112,79
"Cc1cc(-c2ccc3[nH]c(-c4nc5n(n4)CCCC5c4ccccc4C)cc3n2)ccn1 (stereo not drawn) [Compound 6, 5,6,7,8-tetrahydro-8-(2-methylphenyl)-2-[5-(2-methyl-4-pyridinyl)-1H-pyrrolo[3,2-b]pyridin-2-yl]-[1,2,4]triazolo[1,5-a]pyridine]",266.5,,,
"N#Cc1ccc2[nH]c(-c3nc4n(n3)CCCC4c3ccccc3C(F)(F)F)cc2c1 (stereo not drawn) [Compound 18, 2-[5,6,7,8-tetrahydro-8-[2-(trifluoromethyl)phenyl][1,2,4]triazolo[1,5-a]pyridin-2-yl]-1H-indole-5-carbonitrile]",229,,,
"COc1c(C#N)ccc2[nH]c(-c3cn4c(n3)C(c3ccc(F)cc3C)OCC4)cc12 (stereo not drawn) [Compound 46, 2-[8-(4-fluoro-2-methylphenyl)-5,6-dihydro-8H-imidazo[2,1-c][1,4]oxazin-2-yl]-4-methoxy-1H-indole-5-carbonitrile]",236.2,,,
"COc1c(C#N)ccc2[nH]c(-c3cn4c(n3)C(c3ccc(F)cc3C)OCC4)cc12 (stereo not drawn) [Compound 47, 2-[8-(4-fluoro-2-methylphenyl)-5,6-dihydro-8H-imidazo[2,1-c][1,4]oxazin-2-yl]-4-methoxy-1H-indole-5-carbonitrile]",242.6,222,56,55
"COc1c(C#N)ccc2[nH]c(-c3nc4n(n3)CCOC4c3ccccc3C(F)(F)F)cc12 (stereo not drawn) [Compound 55, 2-[5,6-dihydro-8-[2-(trifluoromethyl)phenyl]-8H-[1,2,4]triazolo[5,1-c][1,4]oxazin-2-yl]-4-methoxy-1H-indole-5-carbonitrile]",,148,94,68
"Cc1cn(-c2ccc3[nH]c(-c4nc5n(n4)CCCC5c4ccc(F)cc4C)nc3c2)cn1 (stereo not drawn) [Compound 176, 8-(4-fluoro-2-methylphenyl)-5,6,7,8-tetrahydro-2-[5-(4-methyl-1H-imidazol-1-yl)-1H-benzimidazol-2-yl]-[1,2,4]triazolo[1,5-a]pyridine]",,126,111,103

# Continued, in another order:
melting point [°C],SMILES,response vs control in vivo at 30 mg/kg (Aβ38) [%],response vs control in vivo at 30 mg/kg (Aβ40) [%],response vs control in vivo at 30 mg/kg (Aβ42) [%]
189.4,"Cc1cn(-c2ccc3[nH]c(-c4nc5n(n4)CCCC5c4ccccc4C)cc3n2)cn1.Cl (stereo not drawn) [Compound 5, 5,6,7,8-tetrahydro-2-[5-(4-methyl-1H-imidazol-1-yl)-1H-pyrrolo[3,2-b]pyridin-2-yl]-8-(2-methylphenyl)-[1,2,4]triazolo[1,5-a]pyridine]",,,
244.9,"Cc1cc(F)ccc1C1CCCn2nc(-c3cc4cc(C#N)ccc4[nH]3)nc21 (stereo not drawn) [Compound 9, 2-[8-(4-fluoro-2-methylphenyl)-5,6,7,8-tetrahydro[1,2,4]triazolo[1,5-a]pyridin-2-yl]-1H-indole-5-carbonitrile]",,,
142.1,"Cc1ccccc1C1CCCn2nc(-c3cc4cc(C#N)ccc4[nH]3)nc21 (stereo not drawn) [Compound 12, 2-[5,6,7,8-tetrahydro-8-(2-methylphenyl)[1,2,4]triazolo[1,5-a]pyridin-2-yl]-1H-indole-5-carbonitrile]",,,
225.1,"N#Cc1ccc2[nH]c(-c3nc4n(n3)CCCC4c3cccc(OC(F)(F)F)c3)cc2c1 (stereo not drawn) [Compound 20, 2-[5,6,7,8-tetrahydro-8-[3-(trifluoromethoxy)phenyl][1,2,4]triazolo[1,5-a]pyridin-2-yl]-1H-indole-5-carbonitrile]",,,
257.5,"COc1c(C#N)ccc2[nH]c(-c3nc4n(n3)CCOC4c3ccc(F)cc3C)cc12 (stereo not drawn) [Compound 114, 2-[8-(4-fluoro-2-methylphenyl)-5,6-dihydro-8H-[1,2,4]triazolo[5,1-c][1,4]oxazin-2-yl]-4-methoxy-1H-indole-5-carbonitrile]",,,
